Assay results: publication PMC3845832 (Clinical cancer research : an official journal of the …, 2013)
Like-named read-outs stand apart in the source and are kept apart here.

Assays:
UGT1A1 or UGT1A4 = conditions: in vitro; cited from earlier work
UGT1A9 = conditions: in vitro; cited from earlier work
[1] = Dinaciclib clearance pathways; conditions: unpublished data
CLL patients [2] = conditions: cited from earlier work
clinical = conditions: human, in vivo
CLL patients [3] = assay: Tumor lysis syndrome; assay type: in vivo, human
CLL patients [4] = conditions: human, in vivo
refractory CLL patients = conditions: pharmacokinetically guided dosing, cited from earlier work
CLL patients [5] = assay: Population PK-PD logistic regression model of TLS probability in Cycle 1; conditions: linear function, day 1 or 8; p<0.01 for significance

Q: With `CN1CCC(c2c(O)cc(O[C@@H]3O[C@H](C(=O)O)[C@@H](O)[C@H](O)[C@H]3O)c3c(=O)cc(-c4ccccc4Cl)oc23)C(O)C1` (stereo partly drawn) [Flavo-5-G, 5-O-β-glucopyranuronosyl-flavopiridol] as the compound, how does the “Share of glucuronidation product” value (UGT1A1 or UGT1A4) read?
A: minor glucuronidation product

Q: For `CN1CC[C@H](c2c(O[C@@H]3O[C@H](C(=O)O)[C@@H](O)[C@H](O)[C@H]3O)cc(O)c3c(=O)cc(-c4ccccc4Cl)oc23)[C@H](O)C1` [Flavo-7-G, 7-O-β-glucopyranuronosyl-flavopiridol], which “Share of glucuronidation product” value (UGT1A9) is on record?
A: 98.5%

Q: What does the source list for `CCc1cnn2c(NCc3ccc[n+]([O-])c3)cc(N3CCCC[C@H]3CCO)nc12` [dinaciclib]?
A: Role of glucuronidation in clearance [1]: clearly important; TLS in treated CLL patients (CLL patients [2]): observed

Q: What does the source list for `CN1CC[C@H](c2c(O)cc(O)c3c(=O)cc(-c4ccccc4Cl)oc23)[C@H](O)C1` [flavopiridol]?
A: Lower CL in females compared to males (clinical; both): 12.3%; Vd (clinical): 75.8 L; clearance (clinical; iv): 568 mL/min; Patients who had TLS in the first cycle (CLL patients [3]; 111 patients of phase I and II studies): 43%; Number of patients having TLS (CLL patients [3]; Day 1, Cycle 1): 25; Exposure (Cmax or AUC) as predictor of TLS in the model (CLL patients [4]): did not improve the model; Patients in whom TLS (dose-limiting toxicity) was observed (CLL patients [2]; two trials, pharmacokinetically guided dosing regimen): 53 out of 116; Patients achieving objective responses (refractory CLL patients; phase I trial): 40%; Patients achieving objective responses (refractory CLL patients; phase II trial): 53%

Q: With flavopiridol glucuronide [flavo-G] as the compound, how does the “AUC, median value” (clinical) read?
A: 13600 ng·h/mL

Q: What about the “AUC, range” value (clinical) of the same compound?
A: 3210 to 141000 ng·h/mL

Q: And the “Exposure (Cmax or AUC) as predictor of TLS in the model” value (CLL patients [5])?
A: significant decrease in OFV
